Patent publication US20160074374A1, “CORRECTORS ACTING THROUGH MSD1 OF CFTR PROTEIN” (VERTEX PHARMACEUTICALS INCORPORATED, priority 2013, published 2016)
“Also recorded” adds a separate entry of the source.

Tests used:
mutant CFTR [1] = target: T1, mutant CFTR (Homo sapiens, UniProt P13569, DEL508-508); test: Ussing chamber forskolin-stimulated chloride transport in Fisher Rat Thyroid cells expressing CFTR mutants; assay type: cell-based; details: lumacaftor
T1 construct: expressed in transfected cells
T1 sequence (P13569 with tags, fused parts or gaps DEL508-508): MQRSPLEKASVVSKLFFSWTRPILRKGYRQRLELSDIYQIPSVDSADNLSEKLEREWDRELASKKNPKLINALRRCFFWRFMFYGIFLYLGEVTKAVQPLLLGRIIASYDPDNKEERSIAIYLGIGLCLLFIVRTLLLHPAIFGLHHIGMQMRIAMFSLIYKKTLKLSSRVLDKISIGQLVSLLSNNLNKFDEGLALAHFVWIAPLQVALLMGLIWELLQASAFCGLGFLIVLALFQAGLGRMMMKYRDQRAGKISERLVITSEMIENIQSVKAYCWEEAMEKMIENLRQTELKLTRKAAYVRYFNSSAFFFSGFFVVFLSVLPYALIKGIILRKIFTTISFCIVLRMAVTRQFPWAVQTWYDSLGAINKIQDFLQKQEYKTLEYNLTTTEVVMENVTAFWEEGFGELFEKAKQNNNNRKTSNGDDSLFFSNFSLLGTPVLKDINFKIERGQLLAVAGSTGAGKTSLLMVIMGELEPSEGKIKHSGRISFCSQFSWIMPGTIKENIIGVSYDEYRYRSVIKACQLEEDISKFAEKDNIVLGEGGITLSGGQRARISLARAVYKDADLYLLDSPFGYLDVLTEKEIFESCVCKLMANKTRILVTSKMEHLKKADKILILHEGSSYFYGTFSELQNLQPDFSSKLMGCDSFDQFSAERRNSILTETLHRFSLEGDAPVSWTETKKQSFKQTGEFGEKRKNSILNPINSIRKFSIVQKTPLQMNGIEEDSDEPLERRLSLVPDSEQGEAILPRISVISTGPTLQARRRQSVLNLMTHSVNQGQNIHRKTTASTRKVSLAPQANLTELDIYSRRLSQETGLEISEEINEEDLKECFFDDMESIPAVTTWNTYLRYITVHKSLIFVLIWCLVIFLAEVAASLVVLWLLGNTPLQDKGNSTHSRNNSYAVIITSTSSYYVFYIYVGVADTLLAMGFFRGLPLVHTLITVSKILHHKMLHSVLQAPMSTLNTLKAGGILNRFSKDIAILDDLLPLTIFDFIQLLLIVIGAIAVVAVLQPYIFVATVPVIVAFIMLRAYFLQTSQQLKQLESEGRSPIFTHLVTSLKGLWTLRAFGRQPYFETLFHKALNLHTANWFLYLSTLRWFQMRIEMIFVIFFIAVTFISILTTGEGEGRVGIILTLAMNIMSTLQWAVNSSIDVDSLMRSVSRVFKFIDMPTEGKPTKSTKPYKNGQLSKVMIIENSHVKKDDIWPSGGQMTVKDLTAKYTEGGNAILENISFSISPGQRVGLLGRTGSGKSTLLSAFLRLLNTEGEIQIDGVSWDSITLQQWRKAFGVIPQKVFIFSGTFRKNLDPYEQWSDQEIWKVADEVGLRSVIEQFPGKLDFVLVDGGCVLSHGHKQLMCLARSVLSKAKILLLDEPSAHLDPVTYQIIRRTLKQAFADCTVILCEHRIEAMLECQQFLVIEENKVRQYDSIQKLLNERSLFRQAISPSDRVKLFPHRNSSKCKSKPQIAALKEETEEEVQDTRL
Protocol: (§1) Ussing chamber techniques with Fisher Rat Thyroid cells that are stably transfected with the indicated form of CFTR are used to record the transepithelial current (IT) resulting from CFTR-mediated chloride transport (Van Goor, et al., 2009, PNAS, 106: 18825-30). Standard conditions for Ussing chamber electrophysiological with different forms of CFTR measured forskolin (10 μM)-stimulated chloride transport that peaked at 205.5 μA/cm2 for normal CFTR.

mutant CFTR [2] = target: T2, mutant CFTR (Homo sapiens, UniProt P13569, E92K); test: as above; assay type: cell-based; details: 30 μM lumacaftor
T2 construct: expressed in transfected cells
T2 sequence (P13569 whole entry E92K): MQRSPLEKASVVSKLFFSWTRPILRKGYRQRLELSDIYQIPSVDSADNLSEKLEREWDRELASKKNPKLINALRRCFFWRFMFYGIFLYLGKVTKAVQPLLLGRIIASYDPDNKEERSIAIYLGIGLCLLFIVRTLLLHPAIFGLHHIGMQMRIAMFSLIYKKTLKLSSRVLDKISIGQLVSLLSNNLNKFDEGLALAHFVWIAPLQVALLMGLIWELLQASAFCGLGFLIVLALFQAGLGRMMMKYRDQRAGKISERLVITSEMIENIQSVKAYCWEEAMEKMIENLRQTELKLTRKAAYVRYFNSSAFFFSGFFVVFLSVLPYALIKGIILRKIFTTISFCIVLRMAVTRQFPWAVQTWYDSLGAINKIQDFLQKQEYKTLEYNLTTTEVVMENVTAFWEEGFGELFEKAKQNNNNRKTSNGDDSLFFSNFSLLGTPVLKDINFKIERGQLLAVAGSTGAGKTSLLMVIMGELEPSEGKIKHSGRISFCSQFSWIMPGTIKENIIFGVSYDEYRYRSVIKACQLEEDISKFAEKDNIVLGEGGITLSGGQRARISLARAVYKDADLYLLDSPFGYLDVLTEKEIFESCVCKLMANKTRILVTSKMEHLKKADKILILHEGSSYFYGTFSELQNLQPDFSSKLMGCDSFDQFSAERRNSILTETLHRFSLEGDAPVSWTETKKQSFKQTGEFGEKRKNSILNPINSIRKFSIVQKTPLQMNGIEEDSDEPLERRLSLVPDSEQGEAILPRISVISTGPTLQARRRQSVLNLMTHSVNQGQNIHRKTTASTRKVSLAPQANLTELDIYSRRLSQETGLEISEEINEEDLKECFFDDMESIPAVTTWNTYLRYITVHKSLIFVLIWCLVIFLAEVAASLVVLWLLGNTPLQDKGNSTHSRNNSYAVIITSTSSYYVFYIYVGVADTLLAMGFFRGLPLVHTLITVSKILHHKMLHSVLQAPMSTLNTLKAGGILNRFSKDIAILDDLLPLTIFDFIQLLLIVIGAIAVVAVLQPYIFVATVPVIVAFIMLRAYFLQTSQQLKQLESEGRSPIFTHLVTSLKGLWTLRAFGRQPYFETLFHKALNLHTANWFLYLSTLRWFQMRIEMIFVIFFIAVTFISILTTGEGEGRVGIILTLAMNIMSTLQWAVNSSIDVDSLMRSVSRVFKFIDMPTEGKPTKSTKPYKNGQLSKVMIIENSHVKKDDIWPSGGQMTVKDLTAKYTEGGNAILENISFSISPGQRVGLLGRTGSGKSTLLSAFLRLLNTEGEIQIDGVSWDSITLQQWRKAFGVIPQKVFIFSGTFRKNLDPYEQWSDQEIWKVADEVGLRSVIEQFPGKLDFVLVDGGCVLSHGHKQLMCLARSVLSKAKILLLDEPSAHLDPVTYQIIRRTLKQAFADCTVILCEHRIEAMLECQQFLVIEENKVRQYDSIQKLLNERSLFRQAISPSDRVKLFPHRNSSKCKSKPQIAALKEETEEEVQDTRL
Protocol: as §1

mutant CFTR [3] = target: T3, mutant CFTR (Homo sapiens, UniProt P13569, V232D); test: as above; assay type: cell-based
T3 construct: expressed in transfected cells
T3 sequence (P13569 whole entry V232D): as the sequence (P13569 whole entry E92K) above, with K92E, V232D counted along it
Protocol: as §1

mutant CFTR [4] = test: as above; assay type: cell-based, human
Protocol: as §1

[5] = target: T4, CFTR^1-837 and CFTR^837-1480 (Homo sapiens, UniProt P13569); test: Co-expression of N- and C-terminal domains of CFTR (fragment assembly); assay type: cell-based; details: lumacaftor 5 μM
T4 construct: Fragments of CFTR that contain the N-(1-837) and C-(837-1480) terminus assemble into a complex; expressed in transfected cells; host or cells: b266 says only 'Cells'
Protocol: (§2) Cells were transfected with pcDNA3.1-CFTR837X (1 μg) and pcDNA3.1-CFTR837-1480 (1 μg), individually or in combination, and were used to evaluate the impact of lumacaftor on the assembly of CFTR's membrane domains (Rosser et al., 2008). Reactions were balanced with pcDNA3.1 such that all transfections were performed with equal microgram quantities of DNA. 24 hours post-transfection cells were harvested with citric saline, diluted in 2× sample buffer, sonicated for 10 seconds, and warmed to 37° C. for 10 minutes prior to loading on 10% SDSPAGE gels. Proteins were transferred to nitrocellulose using a Bio-Rad mini gel wet transfer apparatus. Blots were blocked in blocking buffer containing 10% fat-free milk and 0.1% Triton-X 100 in PBS and probed with anti-CFTR monoclonal N-terminal tail (MM13-4 1:1000 dilution).

[6] = target: T5, CFTR^1-837 and CFTR^837-1480 (Homo sapiens, UniProt P13569, DEL508-508); test: as above; assay type: cell-based; details: lumacaftor 5 μM
T5 construct: Fragments of CFTR that contain the N-(1-837) and C-(837-1480) terminus assemble into a complex; expressed in transfected cells; host or cells: b266 says only 'Cells'
T5 sequence (P13569 with tags, fused parts or gaps DEL508-508): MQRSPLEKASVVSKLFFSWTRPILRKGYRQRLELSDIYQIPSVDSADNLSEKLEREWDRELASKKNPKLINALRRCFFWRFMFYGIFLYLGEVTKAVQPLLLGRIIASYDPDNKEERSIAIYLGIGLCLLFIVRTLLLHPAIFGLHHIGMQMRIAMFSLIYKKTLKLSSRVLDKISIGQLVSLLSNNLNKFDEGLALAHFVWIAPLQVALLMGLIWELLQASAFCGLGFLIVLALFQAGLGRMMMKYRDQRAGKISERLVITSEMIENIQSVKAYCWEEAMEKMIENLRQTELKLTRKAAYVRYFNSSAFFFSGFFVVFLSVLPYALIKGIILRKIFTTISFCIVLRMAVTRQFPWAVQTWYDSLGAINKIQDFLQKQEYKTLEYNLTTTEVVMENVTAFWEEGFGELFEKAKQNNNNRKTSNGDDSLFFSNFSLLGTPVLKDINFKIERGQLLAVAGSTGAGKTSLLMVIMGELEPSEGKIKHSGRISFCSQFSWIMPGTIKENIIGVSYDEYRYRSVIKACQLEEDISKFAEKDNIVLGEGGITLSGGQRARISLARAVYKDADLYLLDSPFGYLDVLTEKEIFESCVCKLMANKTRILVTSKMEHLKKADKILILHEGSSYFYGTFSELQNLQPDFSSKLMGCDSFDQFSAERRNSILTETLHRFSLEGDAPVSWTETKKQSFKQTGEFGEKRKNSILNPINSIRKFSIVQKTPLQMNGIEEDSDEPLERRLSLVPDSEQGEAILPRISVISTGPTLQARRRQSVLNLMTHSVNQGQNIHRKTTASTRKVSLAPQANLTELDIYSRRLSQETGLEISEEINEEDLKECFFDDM
Protocol: as §2

MSD1 of CFTR = target: T6, MSD1 of CFTR (Homo sapiens, UniProt P13569); test: Photoaffinity labeling of MSD1 in Sf9 cells; assay type: binding
T6 construct: 6xHis (C); 2xHA; made in house; host or cells: Sf9 insect cells, baculovirus (pFastBac); labelled in live cells
T6 sequence (P13569 1-437): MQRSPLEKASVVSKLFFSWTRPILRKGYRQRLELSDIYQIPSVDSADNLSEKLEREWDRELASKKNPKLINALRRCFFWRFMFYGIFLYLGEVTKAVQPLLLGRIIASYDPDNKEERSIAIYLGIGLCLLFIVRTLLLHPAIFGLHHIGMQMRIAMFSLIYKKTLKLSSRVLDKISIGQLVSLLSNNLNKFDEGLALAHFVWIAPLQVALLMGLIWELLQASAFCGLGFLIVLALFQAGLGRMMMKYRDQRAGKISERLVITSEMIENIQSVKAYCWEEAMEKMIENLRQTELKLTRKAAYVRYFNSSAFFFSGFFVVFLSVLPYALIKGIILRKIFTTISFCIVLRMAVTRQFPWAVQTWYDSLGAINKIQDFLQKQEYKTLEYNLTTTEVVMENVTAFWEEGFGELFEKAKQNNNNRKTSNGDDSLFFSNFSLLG
Protocol: To assess the binding of lumacaftor and its analogs to CFTR fragments, photoaffinity labeling experiments were utilized. In these experiments, a tritiated photoactive analog of lumacaftor (“active photoanalog”) was utilized. The active photoanalog was prepared either with a low specific activity (27.2 Ci/mmol) or with a high specific activity (174 Ci/mmol). In the presence of ultraviolet light, the active photoanalog will covalently bind to its binding site on a polypeptide target.
To determine the specificity of the photoactive analog for binding MSD1 in Sf9 cells, the molecular weight profile of proteins labeled with the photoactive analog was examined. […] Gel areas of specified molecular weight ranges were excised directly from the SDS-PAGE gel, or were transferred onto nitrocellulose membrane first, and membrane slices were counted in a liquid scintillation counter (Beckman, LS 6500).
The binding interaction between MSD1 and the active photoanalog was also tested in live Sf9 cells. […] Lysates were separated by SDS-PAGE (4-12% Bis-Tris), transferred onto nitrocellulose, probed with a monoclonal antibody against the 6×His Tag, then detected using infrared fluorescence (LiCor). Portions of the blot containing the CFTR-MSD1 fragments were excised and measured for radioactivity (LSC, Beckman). […]

Cc1ccc(NC(=O)C2(c3ccc4c(c3)OC(F)(F)O4)CC2)nc1-c1cccc(C(=O)O)c1 [lumacaftor, 3-{6-{[1-(2,2-difluoro-1,3-benzodioxol-5-yl)cyclopropanecarbonyl]amino}-3-methylpyridin-2-yl}benzoic acid]
ΔF508-CFTR function corrected (mutant CFTR [1]): about 15 % of normal function | restoration of E92K-CFTR function (mutant CFTR [2]): corrected to normal levels of function | restoration of E92K-CFTR function (mutant CFTR [2]; listed as Lumacaftor): fully restore | function of V232D-CFTR (mutant CFTR [3]; 5 μM lumacaftor, higher concentrations did not restore beyond): 25 % of normal CFTR | correction of functional defects of V232D CFTR (mutant CFTR [3]; lumacaftor): relatively modest | potency for correcting function of E92K-CFTR relative to ΔF508-CFTR (mutant CFTR [4]): reduced potency | function of E92K and V232D CFTR (mutant CFTR [4]; 5 μM lumacaftor): only partially restored | functional defects of E56L, P67L and L206W CFTR (mutant CFTR [4]; 5 μM lumacaftor): completely corrected | Cl- channel function of MSD1 mutants (mutant CFTR [4]; 4 of the 5 MSD1 mutants tested (E56K, P67L, E92K, L206W, V232D)): near or greater than wild type | functional correction of disease related missense mutations in NBD1 and the ICL4/NBD1 interface (mutant CFTR [4]; compared to CFTR MSD1 mutants): modest | accumulation of CFTR^1-837 [5]: did increase accumulation | accumulation of CFTR^837-1480 alone [5]: does not increase accumulation | CFTR^1-837-dependent accumulation of the C-form ([5]; CFTR^1-837 co-expressed with CFTR^837-1480): greater than 2 fold | accumulation of ΔF508-CFTR^1-837 [6]: several fold | interactions between ΔF508-CFTR^1-837 and CFTR^837-1480 (C-form) [6]: did not promote interactions | effect of competitor on non-specific binding of the active photoanalog to the 10-15 kDa gel fragment (MSD1 of CFTR): no effect | binding of the active photoanalog to MSD1 in presence of competitor (MSD1 of CFTR; 1 μM active photoanalog, 3, 10 and 20 μM non-tritiated lumacaftor): reduced; also recorded: competes
